Measured values reported in patent publication US20220088016A1, “CANCER TREATMENT USING MULTI-TARGETED KINASE INHIBITOR IN COMBINATION OF PROTEIN KINASE BIOMARKERS” (ZHEJIANG CROWNMAB BIOTECH CO. LTD., priority 2019, published 2022).

Legend:
ROS1 = ROS1 (Homo sapiens, UniProt P08922); assay: Kinase profiling; assay type: binding; conditions: read-out: % Ctrl @ 1000 nM
MAP4K2 = MAP4K2 (Homo sapiens, UniProt Q12851); assay: Kinase profiling; assay type: binding; conditions: read-out: % Ctrl @ 1000 nM
MAP4K3 = MAP4K3 (Homo sapiens, UniProt Q8IVH8); assay: Kinase profiling; assay type: binding; conditions: read-out: % Ctrl @ 1000 nM
ARK5 = ARK5 (Homo sapiens, UniProt O60285); assay: Kinase profiling; assay type: binding; conditions: read-out: % Ctrl @ 1000 nM
M-NFS-60 cells = assay: Proliferation of M-NFS-60 cells (CTG assay); assay type: cell-based, mouse; conditions: M-NFS-60 (CSF-1 dependent), 3 days
Protocol: Two syngeneic cell lines M-NFS-60 and RAW264.7 and engineered BaF3 hCSFIR cell line were starved and then tested with CBT-102 and other test articles for 3 days in the temperature of 37° C., 5% CO2 and 95% humidity. The cell viability was then detected using CTG assay. The software of GraphPad Prism was used to calculate IC50.
CSF-1 dependent mouse myeloid M-NFS-60 cells were employed as target cells while a CSF-1 independent cell line Raw 264.7 was used as a negative control. In addition to CBT-102, the study also included 3 CSF-1R inhibitors: GW2580, BLZ945 and Pexidartinib.

MERTK = target: T1, MERTK (Homo sapiens, UniProt Q12866); assay: Kinase profiling; assay type: binding; conditions: read-out: % Ctrl @ 1000 nM
T1 construct: T7 phage fusion (stated for most kinases of the panel only); made in house; host or cells: T7 phage in E. coli (BL21-derived) or HEK-293 cells

SRPK1 = SRPK1 (Homo sapiens, UniProt Q96SB4); assay: Kinase profiling; assay type: binding; conditions: read-out: % Ctrl @ 1000 nM
DLK = DLK (Homo sapiens, UniProt Q12852); assay: Kinase profiling; assay type: binding; conditions: read-out: % Ctrl @ 1000 nM
Chain of DLK (Q12852 whole entry): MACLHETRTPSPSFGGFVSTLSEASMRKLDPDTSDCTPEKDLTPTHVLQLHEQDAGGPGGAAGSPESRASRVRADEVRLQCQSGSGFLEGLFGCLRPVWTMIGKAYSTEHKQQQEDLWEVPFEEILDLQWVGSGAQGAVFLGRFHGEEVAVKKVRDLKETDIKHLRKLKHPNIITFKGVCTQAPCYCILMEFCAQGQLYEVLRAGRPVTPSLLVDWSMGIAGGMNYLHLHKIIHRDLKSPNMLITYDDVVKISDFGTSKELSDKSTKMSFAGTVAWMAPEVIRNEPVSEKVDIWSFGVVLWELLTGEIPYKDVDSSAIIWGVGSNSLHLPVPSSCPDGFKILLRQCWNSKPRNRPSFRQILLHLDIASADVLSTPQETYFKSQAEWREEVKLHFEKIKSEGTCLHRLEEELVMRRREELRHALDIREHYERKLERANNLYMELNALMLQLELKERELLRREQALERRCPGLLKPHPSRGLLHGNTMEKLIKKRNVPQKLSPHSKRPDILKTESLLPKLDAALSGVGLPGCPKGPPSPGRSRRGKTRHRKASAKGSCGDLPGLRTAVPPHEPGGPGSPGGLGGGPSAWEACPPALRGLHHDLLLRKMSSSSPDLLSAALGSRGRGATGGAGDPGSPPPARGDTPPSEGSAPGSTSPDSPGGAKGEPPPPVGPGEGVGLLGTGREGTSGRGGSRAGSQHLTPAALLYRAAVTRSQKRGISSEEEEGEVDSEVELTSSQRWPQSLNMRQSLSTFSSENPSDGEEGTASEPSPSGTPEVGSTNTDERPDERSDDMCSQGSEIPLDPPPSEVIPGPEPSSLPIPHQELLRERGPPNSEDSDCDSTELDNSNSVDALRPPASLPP

LTK = LTK (Homo sapiens, UniProt P29376); assay: Kinase profiling; assay type: binding; conditions: read-out: % Ctrl @ 1000 nM
PLK4 = PLK4 (Homo sapiens, UniProt O00444); assay: Kinase profiling; assay type: binding; conditions: read-out: % Ctrl @ 1000 nM
CTK = CTK (Homo sapiens, UniProt P42679); assay: Kinase profiling; assay type: binding; conditions: read-out: % Ctrl @ 1000 nM
DYRK1A = DYRK1A (Homo sapiens, UniProt Q13627); assay: Kinase profiling; assay type: binding; conditions: read-out: % Ctrl @ 1000 nM
ALK (C1156Y) = ALK (C1156Y) (Homo sapiens, UniProt Q9UM73, C1156Y); assay: Kinase profiling; assay type: binding; conditions: read-out: % Ctrl @ 1000 nM
GSK3B = GSK3B (Homo sapiens, UniProt P49841); assay: Kinase profiling; assay type: binding; conditions: read-out: % Ctrl @ 1000 nM
Chain of GSK3B (P49841 whole entry): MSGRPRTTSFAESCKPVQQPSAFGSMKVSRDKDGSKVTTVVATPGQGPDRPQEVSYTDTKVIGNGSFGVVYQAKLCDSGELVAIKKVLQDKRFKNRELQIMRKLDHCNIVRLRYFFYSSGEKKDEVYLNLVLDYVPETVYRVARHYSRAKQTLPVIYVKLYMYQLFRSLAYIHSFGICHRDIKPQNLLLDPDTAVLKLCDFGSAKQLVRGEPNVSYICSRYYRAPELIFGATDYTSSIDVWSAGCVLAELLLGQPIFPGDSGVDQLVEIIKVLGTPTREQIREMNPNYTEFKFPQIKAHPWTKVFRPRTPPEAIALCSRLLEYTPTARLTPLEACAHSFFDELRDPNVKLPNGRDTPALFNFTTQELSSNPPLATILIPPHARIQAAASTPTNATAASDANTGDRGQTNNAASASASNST

PKMYT1 = PKMYT1 (Homo sapiens, UniProt Q99640); assay: Kinase profiling; assay type: binding; conditions: read-out: % Ctrl @ 1000 nM
SIK = SIK (Homo sapiens, UniProt P57059); assay: Kinase profiling; assay type: binding; conditions: read-out: % Ctrl @ 1000 nM
PHKG1 = PHKG1 (Homo sapiens, UniProt Q16816); assay: Kinase profiling; assay type: binding; conditions: read-out: % Ctrl @ 1000 nM
CDKL5 = CDKL5 (Homo sapiens, UniProt O76039); assay: Kinase profiling; assay type: binding; conditions: read-out: % Ctrl @ 1000 nM
HIPK3 = HIPK3 (Homo sapiens, UniProt Q9H422); assay: Kinase profiling; assay type: binding; conditions: read-out: % Ctrl @ 1000 nM
ERK3 = ERK3 (Homo sapiens, UniProt Q16659); assay: Kinase profiling; assay type: binding; conditions: read-out: % Ctrl @ 1000 nM
Chain of ERK3 (Q16659 whole entry): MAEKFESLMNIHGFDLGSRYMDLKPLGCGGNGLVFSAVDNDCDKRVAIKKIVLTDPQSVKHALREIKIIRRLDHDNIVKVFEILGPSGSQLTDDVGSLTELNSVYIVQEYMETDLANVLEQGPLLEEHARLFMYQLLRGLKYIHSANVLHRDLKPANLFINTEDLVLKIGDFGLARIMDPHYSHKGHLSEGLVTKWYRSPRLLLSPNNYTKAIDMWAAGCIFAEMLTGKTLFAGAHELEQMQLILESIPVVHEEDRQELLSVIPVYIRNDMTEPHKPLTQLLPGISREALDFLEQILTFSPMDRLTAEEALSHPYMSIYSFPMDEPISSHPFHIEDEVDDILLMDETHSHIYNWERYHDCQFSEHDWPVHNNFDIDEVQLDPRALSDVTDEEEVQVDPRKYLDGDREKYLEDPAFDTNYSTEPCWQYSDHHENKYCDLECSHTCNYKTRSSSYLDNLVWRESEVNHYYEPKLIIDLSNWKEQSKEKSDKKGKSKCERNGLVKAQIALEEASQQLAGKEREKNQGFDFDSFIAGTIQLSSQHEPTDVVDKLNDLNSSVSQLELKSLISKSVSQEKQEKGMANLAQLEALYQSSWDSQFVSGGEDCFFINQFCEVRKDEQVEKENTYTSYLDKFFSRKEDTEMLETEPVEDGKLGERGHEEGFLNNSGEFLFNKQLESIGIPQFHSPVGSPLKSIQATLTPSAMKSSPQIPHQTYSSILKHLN

MAP3K1 = MAP3K1 (Homo sapiens, UniProt Q13233); assay: Kinase profiling; assay type: binding; conditions: read-out: % Ctrl @ 1000 nM
Chain of MAP3K1 (Q13233 whole entry): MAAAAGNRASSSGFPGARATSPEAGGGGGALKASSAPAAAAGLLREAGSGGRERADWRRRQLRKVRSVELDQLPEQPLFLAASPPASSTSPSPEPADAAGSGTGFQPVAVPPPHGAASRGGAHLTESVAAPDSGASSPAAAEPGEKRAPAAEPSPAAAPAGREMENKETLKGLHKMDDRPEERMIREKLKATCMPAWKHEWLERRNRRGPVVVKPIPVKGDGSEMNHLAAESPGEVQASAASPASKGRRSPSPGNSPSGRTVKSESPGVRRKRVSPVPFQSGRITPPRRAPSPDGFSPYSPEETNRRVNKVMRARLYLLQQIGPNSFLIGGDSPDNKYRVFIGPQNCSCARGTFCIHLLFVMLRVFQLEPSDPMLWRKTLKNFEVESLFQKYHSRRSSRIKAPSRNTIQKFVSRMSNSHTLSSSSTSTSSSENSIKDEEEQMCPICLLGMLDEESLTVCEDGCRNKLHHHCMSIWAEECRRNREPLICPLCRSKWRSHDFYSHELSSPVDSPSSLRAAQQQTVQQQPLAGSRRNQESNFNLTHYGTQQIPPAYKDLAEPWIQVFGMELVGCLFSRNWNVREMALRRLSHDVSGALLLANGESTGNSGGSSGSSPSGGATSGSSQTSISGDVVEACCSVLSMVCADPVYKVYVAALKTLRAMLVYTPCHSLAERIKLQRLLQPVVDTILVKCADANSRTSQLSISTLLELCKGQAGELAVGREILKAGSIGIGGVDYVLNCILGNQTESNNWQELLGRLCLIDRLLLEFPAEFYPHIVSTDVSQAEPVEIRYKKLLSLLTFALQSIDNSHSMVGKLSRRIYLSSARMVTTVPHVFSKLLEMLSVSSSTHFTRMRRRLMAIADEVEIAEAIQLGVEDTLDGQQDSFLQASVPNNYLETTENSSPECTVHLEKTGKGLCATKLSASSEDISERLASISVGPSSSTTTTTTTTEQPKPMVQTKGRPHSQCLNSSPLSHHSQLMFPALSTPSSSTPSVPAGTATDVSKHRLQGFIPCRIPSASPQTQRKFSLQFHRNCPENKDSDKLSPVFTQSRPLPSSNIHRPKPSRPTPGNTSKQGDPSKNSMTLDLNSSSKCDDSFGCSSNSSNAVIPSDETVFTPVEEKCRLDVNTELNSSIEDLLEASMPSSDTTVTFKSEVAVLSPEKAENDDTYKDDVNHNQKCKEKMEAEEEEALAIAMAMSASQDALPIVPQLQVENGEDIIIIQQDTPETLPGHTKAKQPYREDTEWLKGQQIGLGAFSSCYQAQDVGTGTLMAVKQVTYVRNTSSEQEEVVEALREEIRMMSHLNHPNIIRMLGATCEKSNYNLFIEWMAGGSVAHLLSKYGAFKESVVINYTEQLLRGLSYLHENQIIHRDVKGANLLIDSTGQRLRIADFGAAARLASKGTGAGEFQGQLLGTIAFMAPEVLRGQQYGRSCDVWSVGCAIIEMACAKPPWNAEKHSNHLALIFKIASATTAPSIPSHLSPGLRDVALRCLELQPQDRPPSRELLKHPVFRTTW

IKK-alpha = IKK-alpha (Homo sapiens, UniProt O15111); assay: Kinase profiling; assay type: binding; conditions: read-out: % Ctrl @ 1000 nM
IRAK3 = IRAK3 (Homo sapiens, UniProt Q9Y616); assay: Kinase profiling; assay type: binding; conditions: read-out: % Ctrl @ 1000 nM
ERN1 = ERN1 (Homo sapiens, UniProt O75460); assay: Kinase profiling; assay type: binding; conditions: read-out: % Ctrl @ 1000 nM
CASK = CASK (Homo sapiens, UniProt O14936); assay: Kinase profiling; assay type: binding; conditions: read-out: % Ctrl @ 1000 nM
MEK5 = target: T2, MEK5 (Homo sapiens, UniProt Q13163); assay: Kinase profiling; assay type: binding; conditions: read-out: % Ctrl @ 1000 nM
T2 construct: T7 phage fusion (stated for most kinases of the panel only); made in house; host or cells: T7 phage in E. coli (BL21-derived) or HEK-293 cells

ACVRL1 = ACVRL1 (Homo sapiens, UniProt P37023); assay: Kinase profiling; assay type: binding; conditions: read-out: % Ctrl @ 1000 nM
PRKG1 = PRKG1 (Homo sapiens, UniProt Q13976); assay: Kinase profiling; assay type: binding; conditions: read-out: % Ctrl @ 1000 nM
MAP3K4 = MAP3K4 (Homo sapiens, UniProt Q9Y6R4); assay: Kinase profiling; assay type: binding; conditions: read-out: % Ctrl @ 1000 nM
[1] = target: ABL1 (F317I)-nonphosphorylated (Homo sapiens, UniProt P00519, F317I); assay: Kinase profiling; assay type: binding; conditions: read-out: % Ctrl @ 1000 nM
Chain of ABL1 (F317I)-nonphosphorylated (P00519 whole entry F317I): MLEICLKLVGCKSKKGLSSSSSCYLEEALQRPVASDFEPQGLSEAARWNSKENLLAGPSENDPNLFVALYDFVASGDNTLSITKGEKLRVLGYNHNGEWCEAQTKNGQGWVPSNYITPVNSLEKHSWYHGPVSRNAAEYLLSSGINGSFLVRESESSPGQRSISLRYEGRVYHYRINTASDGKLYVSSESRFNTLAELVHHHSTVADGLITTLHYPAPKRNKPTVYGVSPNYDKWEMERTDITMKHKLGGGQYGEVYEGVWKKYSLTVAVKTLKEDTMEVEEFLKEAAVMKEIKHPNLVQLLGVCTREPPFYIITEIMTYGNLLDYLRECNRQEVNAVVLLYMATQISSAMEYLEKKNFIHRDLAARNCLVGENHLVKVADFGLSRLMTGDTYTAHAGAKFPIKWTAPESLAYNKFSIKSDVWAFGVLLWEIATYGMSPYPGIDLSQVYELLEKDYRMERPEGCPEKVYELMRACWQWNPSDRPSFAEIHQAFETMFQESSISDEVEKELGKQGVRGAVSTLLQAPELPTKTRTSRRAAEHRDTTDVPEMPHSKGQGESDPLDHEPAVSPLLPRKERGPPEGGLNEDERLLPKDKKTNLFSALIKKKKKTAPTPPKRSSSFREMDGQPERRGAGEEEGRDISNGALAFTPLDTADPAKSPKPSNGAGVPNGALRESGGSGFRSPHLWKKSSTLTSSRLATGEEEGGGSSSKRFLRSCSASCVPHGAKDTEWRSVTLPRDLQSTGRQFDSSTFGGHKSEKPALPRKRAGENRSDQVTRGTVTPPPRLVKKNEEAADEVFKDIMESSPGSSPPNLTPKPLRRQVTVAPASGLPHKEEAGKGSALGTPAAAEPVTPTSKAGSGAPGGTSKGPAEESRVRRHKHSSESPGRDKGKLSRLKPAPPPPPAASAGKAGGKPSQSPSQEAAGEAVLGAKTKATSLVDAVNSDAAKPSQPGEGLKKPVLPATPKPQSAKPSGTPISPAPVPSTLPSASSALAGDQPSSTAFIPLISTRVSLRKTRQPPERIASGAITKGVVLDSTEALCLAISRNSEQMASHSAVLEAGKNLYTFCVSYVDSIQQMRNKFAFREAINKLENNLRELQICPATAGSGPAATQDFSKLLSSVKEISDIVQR

QSK = QSK (Homo sapiens, UniProt Q9Y2K2); assay: Kinase profiling; assay type: binding; conditions: read-out: % Ctrl @ 1000 nM
DYRK1B = DYRK1B (Homo sapiens, UniProt Q9Y463); assay: Kinase profiling; assay type: binding; conditions: read-out: % Ctrl @ 1000 nM
EPHA3 = EPHA3 (Homo sapiens, UniProt P29320); assay: Kinase profiling; assay type: binding; conditions: read-out: % Ctrl @ 1000 nM
ADCK4 = ADCK4 (Homo sapiens, UniProt Q96D53); assay: Kinase profiling; assay type: binding; conditions: read-out: % Ctrl @ 1000 nM
[2] = target: RSK4 (Kin.Dom.1-N-terminal) (Homo sapiens, UniProt Q9UK32); assay: Kinase profiling; assay type: binding; conditions: read-out: % Ctrl @ 1000 nM
Chain of RSK4 (Kin.Dom.1-N-terminal) (Q9UK32 73-330 limits assumed): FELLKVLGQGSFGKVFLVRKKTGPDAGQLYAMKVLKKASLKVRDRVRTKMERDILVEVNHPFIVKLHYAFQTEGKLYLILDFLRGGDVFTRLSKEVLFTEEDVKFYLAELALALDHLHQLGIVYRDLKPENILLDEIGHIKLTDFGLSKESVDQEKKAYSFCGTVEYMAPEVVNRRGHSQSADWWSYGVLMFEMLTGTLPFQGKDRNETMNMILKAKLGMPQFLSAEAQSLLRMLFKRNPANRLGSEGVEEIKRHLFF

INSRR = INSRR (Homo sapiens, UniProt P14616); assay: Kinase profiling; assay type: binding; conditions: read-out: % Ctrl @ 1000 nM

`Cc1cc(Oc2cc(NC(=O)C3CC3)ncn2)ccc1NC(=O)Nc1ccc(Cl)c(C(F)(F)F)c1` [CBT-102] showed a remaining activity at 1 µM (ROS1) of 63%, a remaining activity at 1 µM (MAP4K2) of 91% and a remaining activity at 1 µM (MAP4K3) of 19%. For the same compound, the remaining activity at 1 µM (ARK5) was 100%, the IC50 (M-NFS-60 cells) was 343 nM and the IC50 (M-NFS-60 cells; Mus musculus, 72 h) was 631 nM. For the same compound, the remaining activity at 1 µM (MERTK) was 23%, the remaining activity at 1 µM (SRPK1) was 56% and the remaining activity at 1 µM (DLK) was 89%. For the same compound, the remaining activity at 1 µM (LTK) was 100%, the remaining activity at 1 µM (PLK4) was 98% and the remaining activity at 1 µM (CTK) was 74%. For the same compound, the remaining activity at 1 µM (DYRK1A) was 97%, the remaining activity at 1 µM (ALK (C1156Y)) was 97% and the remaining activity at 1 µM (GSK3B) was 42%. The remaining activity at 1 µM (PKMYT1) was 97%, the remaining activity at 1 µM (SIK) was 95% and the remaining activity at 1 µM (PHKG1) was 96%. For the same compound, the remaining activity at 1 µM (CDKL5) was 97%, the remaining activity at 1 µM (HIPK3) was 78% and the remaining activity at 1 µM (ERK3) was 100%. The remaining activity at 1 µM (MAP3K1) was 83%, the remaining activity at 1 µM (IKK-alpha) was 93% and the remaining activity at 1 µM (IRAK3) was 100%. The remaining activity at 1 µM (ERN1) was 78%, the remaining activity at 1 µM (CASK) was 98% and the remaining activity at 1 µM (MEK5) was 6.2%. For the same compound, the remaining activity at 1 µM (ACVRL1) was 67%, the remaining activity at 1 µM (PRKG1) was 100% and the remaining activity at 1 µM (MAP3K4) was 100%. The remaining activity at 1 µM [1] was 70%, the remaining activity at 1 µM (QSK) was 91% and the remaining activity at 1 µM (DYRK1B) was 100%. For the same compound, the remaining activity at 1 µM (EPHA3) was 33%, the remaining activity at 1 µM (ADCK4) was 88% and the remaining activity at 1 µM [2] was 100%. The remaining activity at 1 µM (INSRR) was 100%.
